Data published in US20120157401A1, “METHODS FOR TREATING NEUROFIBROMATOSIS” (PTC Therapeutics, Inc., priority 2009, published 2012).

What was measured:
[1] = tested on: soluble VEGF121 and VEGF165 isoforms; test: ELISA of soluble VEGF production in nontransformed keratinocytes during hypoxia or normoxia; format: cell-based, human; conditions: 72 hours
Procedure: Experimental Design. Nontransformed normal human keratinocyte cell cultures were established under normoxic conditions (21% oxygen). […] At the completion of treatment, cells were assessed for viability with an ATP assay and conditioned media were evaluated for VEGF protein levels by ELISA (as described in Section 9.1.1.1).

HT1080 xenografts = test: HT1080 xenograft selectivity studies: tumor size; format: in vivo, athymic nude mice
Procedure: In all of these experiments, HT1080 cells (5×10^6 cells/mouse) were implanted subcutaneously in male athymic nude mice. When tumors had become established, mice were divided into groups (10 mice/group). […] Tumor size was measured by calipers at the beginning and end of treatment. At the completion of Compound administration, the mice were sacrificed, and excised tumors were assayed by ELISA for intratumoral VEGF or other angiogenic factors using methods analogous to those described in Section 9.1.1.1.

[2] = tested on: human VEGF121 and VEGF165; test: HT1080 xenograft dose response: intratumoral and pathologic plasma human VEGF ELISA; format: in vivo
Procedure: Experimental Study Design. HT1080 cells (5×10^6 cells/mouse) were implanted subcutaneously in male athymic nude mice.
Tumor size was measured using calipers at periodic intervals during the study (data shown in Section 9.2.2). […] The study was ended after 18 days, when the vehicle treated tumors reached a mean volume of ˜1755 mm^3. […] Mice were sacrificed, and excised tumors were homogenized in buffer containing protease inhibitors. Both terminal intratumoral and pathologic plasma human VEGF levels were measured using an ELISA that recognizes human VEGF121 and VEGF165 (as described in Section 9.1.1.1). Intratumoral VEGF levels were normalized to the total tumor protein concentration, while pathologic plasma human VEGF levels were expressed in pg/mL of plasma.

tumor perfusion = test: Patients: tumor perfusion by DCE-MRI; format: in vivo, human
Description: Tumor perfusion using DCE-MRI: Assessing tumor blood flow offers an additional parameter of a Compound's action that can confirm the downstream consequences of decreasing tumor VEGF. Measurement of blood flow in target lesions provides direct evidence of a Compound's action on tumors that can be correlated with plasma VEGF changes. Assessment of tumor perfusion using DCE-MRI may be used to evaluate the efficacy of a Compound using standard protocols (see., e.g., Morgan et al., J. Clin. Oncol., Nov. 1, 2003, 21(21):3955-64; Leach et al., Br. J. Cancer, May 9, 2005, 92(9):1599-610; Liu et al., J. Clin. Oncol., August 2005, 23(24): 5464-73; and Thomas et al., J. Clin. Oncol., Jun. 20, 2005, 23(18):4162-71).
Tumor Perfusion with DCE-MRI. Subjects may undergo DCE-MRI for the target lesion of interest during the screening period and between 1 to 8 hours after the AM dose at various times throughout the treatment protocol.

[3] = tested on: soluble VEGF121 and VEGF165 isoforms; test: Inhibition of soluble VEGF production in human tumor cell lines (ELISA, EC50); format: cell-based
Procedure: Study Design. […] In these experiments, cultures were established under normoxic conditions (21% oxygen). […] Cells requiring induction of VEGF production were incubated under hypoxic conditions (1% oxygen). At the completion of treatment, the conditioned media were collected and assayed by ELISA (as described in Section 9.1.1.1) for soluble VEGF121 and VEGF165 isoforms; results were calculated as percentage inhibition relative to vehicle treated controls. EC50 values were calculated from the dose concentration response curves.

HT1080 cells = test: Anchorage-independent colony formation in HT1080 cells; format: cell-based, human; conditions: 10 and 50 nM, day 18; P=0.29 and 0.07
Procedure: Experimental Design. HT1080 cells growing in monolayer were trypsinized, counted and suspended in a 0.35% agar noble/1× complete DMEM solution at 37° C. at a concentration of 2,500 cells/mL. One ml of this solution was layered over a semisolid base consisting of 0.5 mL of 0.75% agar noble/1× complete DMEM in a six well tissue culture plate. […] Tissue culture plates were then returned to the incubator and colonies were allowed to form. […] On day 18 the vehicle-treated wells had colonies of sufficient size to count (>50 cells/colony). At this time, for increased visualization, 1.5 mL of a 2× working volume of (3-(4,5-Dimethylthiazol-2-yl)-2,5-diphenyltetrazolium bromide, a tetrazole) (MTT, Invitrogen, Cat #C35007) was added and the plates were returned to the incubator for 2 hours until colonies were stained by conversion of the MTT to purple formazan crystals. Colonies were then visually counted under a dissecting microscope.

CYP2C9 = target: T1, CYP2C9 (Homo sapiens, UniProt P11712); test: CYP inhibition: CYP2C9; format: in vitro ADME; conditions: human hepatic microsomes or recombinant isoenzymes
T1 construct: host or cells: human hepatic microsomes or recombinant isoenzyme (not distinguished)
Description: It is possible that in certain clinical trial subjects, such agents may need to be adjusted for dosing or replaced by alternative agents that are not metabolized by CYP2D6, particularly when such agents may have a low therapeutic index.

[4] = tested on: Chinese hamster ovary (CHO) cells; test: Chromosome aberration study in CHO cells; format: cell-based; conditions: with and without metabolic activation
Procedure: Genotoxicity was assessed in a battery of in vitro and in vivo studies that included a bacterial reverse mutation study, a chromosome aberration study in Chinese hamster ovary (CHO) cells, and a micronucleus study in rats by the oral route. The in vitro studies were performed in the presence and absence of an exogenous metabolic activation system.

[5] = all Compound #10 dose groups (0.3-10 mg/kg, oral, 18 days)

T1 sequence (P11712 whole entry): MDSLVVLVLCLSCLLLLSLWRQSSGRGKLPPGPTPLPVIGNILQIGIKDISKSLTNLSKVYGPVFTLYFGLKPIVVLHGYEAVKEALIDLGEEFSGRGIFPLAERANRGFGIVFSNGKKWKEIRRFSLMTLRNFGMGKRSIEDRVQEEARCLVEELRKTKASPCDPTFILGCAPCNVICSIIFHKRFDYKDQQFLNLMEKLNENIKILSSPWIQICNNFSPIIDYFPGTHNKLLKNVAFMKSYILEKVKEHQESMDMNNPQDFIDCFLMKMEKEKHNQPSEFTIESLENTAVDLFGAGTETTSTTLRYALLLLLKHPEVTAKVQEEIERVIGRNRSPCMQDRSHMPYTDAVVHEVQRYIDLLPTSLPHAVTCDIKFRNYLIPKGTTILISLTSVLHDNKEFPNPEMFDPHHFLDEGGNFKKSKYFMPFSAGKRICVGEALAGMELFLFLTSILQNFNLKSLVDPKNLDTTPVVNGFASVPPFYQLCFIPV

With `COc1ccc(C2c3[nH]c4ccc(Cl)cc4c3CCN2C(=O)Oc2ccc(Cl)cc2)cc1` (racemic) [Compound #10] the “Maximal decrease in VEGF concentration in conditioned media” value ([1]; hypoxic (1% oxygen)) was 57%, the “Mean VEGF concentration in conditioned media at maximal decrease” value ([1]; hypoxic (1% oxygen)) was 606 pg/mL and the “Decrease in VEGF concentration in conditioned media” value ([1]; normoxic) was 21%. For the same compound, the “Mean VEGF concentration in conditioned media in the presence of compound” value ([1]; normoxic) was 192 pg/mL, the “Final mean Compound #10-treated tumor size” value (HT1080 xenografts; Study 1: 1 mg/kg oral BID, 28 days) was 450 mm^3 and the “Final mean Compound #10-treated tumor size” value (HT1080 xenografts; Study 2: 5 mg/kg oral BID, 7 days) was 595 mm^3. The “Final mean Compound #10-treated tumor size” value (HT1080 xenografts; Study 3: 5 mg/kg oral BID, 10 days) was 735 mm^3, the “Final mean Compound #10-treated tumor size” value (HT1080 xenografts; Study 4: 5 mg/kg oral BID, 9 days) was 953 mm^3 and the “Final mean Compound #10-treated tumor size” value (HT1080 xenografts; Study 5: 5/50 mg/kg oral BID, 15 days) was 1922 mm^3. For the same compound, the “Final mean Compound #10-treated tumor size” value (HT1080 xenografts; Study 6: 5 mg/kg oral QD, 21 days) was 750 mm^3, the “Final mean Compound #10-treated tumor size” value (HT1080 xenografts; Study 7: 10 mg/kg oral QD, 42 days) was 1770 mm^3 and the “Reduction in tumor and pathologic plasma human VEGF concentrations” value ([2]; 0.3 mg/kg BID) was “partial reductions”. The “Pathologic human VEGF levels in plasma” value [2, 5] was “significantly suppressed”, the “Pathologic human VEGF levels in tumors” value [2, 5] was “significantly suppressed” and the “Reduction in tumor and pathologic plasma human VEGF concentrations” value ([2]; dose levels of ≧1 mg/kg BID) was “essentially maximal”. For the same compound, the “Tumor perfusion in patients by DCE-MRI (FIG. 36)” value (tumor perfusion) was “reduced”, the EC50 ([3]; A-375, Melanoma, A375, hypoxic (1% oxygen), 48 hours) was 0.05 µM and the EC50 ([3]; A-431, Epidermoid, A431, 48 hours) was 0.01 µM. It also gave an EC50 ([3]; Breast, MDA-MB-468, hypoxic (1% oxygen), 48 hours) of 0.005 µM, an EC50 ([3]; Cervical, HeLa, hypoxic (1% oxygen), 48 hours) of 0.002 µM and an EC50 ([3]; Colorectal, HCT-116, 48 hours) of 0.01 µM. For the same compound, the EC50 ([3]; Gastric, AGS, 48 hours) was 0.0001 µM, the EC50 ([3]; Gastric, Kato III, hypoxic (1% oxygen), 48 hours) was 0.01 µM and the EC50 ([3]; HT-1080, Fibrosarcoma, HT1080, 48 hours) was 0.01 µM. It also gave an EC50 ([3]; Lung, A549, 48 hours) of 0.05 µM, an EC50 ([3]; Lung, Calu-6, hypoxic (1% oxygen), 48 hours) of 0.007 µM and an EC50 ([3]; Lung, NCI H460, 48 hours) of 0.01 µM. For the same compound, the EC50 ([3]; MDA-MB-231, 48 h) was 0.005 µM, the EC50 ([3]; Neuroblastoma, SY5Y, hypoxic (1% oxygen), 48 hours) was 0.005 µM and the EC50 ([3]; Pancreas, Capan-1, hypoxic (1% oxygen), 48 hours) was 0.005 µM. For the same compound, the EC50 ([3]; Prostate, LNCaP, hypoxic (1% oxygen), 48 hours) was 0.015 µM, the EC50 ([3]; Renal cell, HEK293, 48 hours) was 0.01 µM and the EC50 ([3]; SK-OV-3, Ovarian, SKOV3, hypoxic (1% oxygen), 48 hours) was 0.01 µM. The EC50 ([3]; SNU1, Gastric, SNU-1, 48 hours) was 0.0001 µM, the “Number of anchorage-independent colonies formed” value (HT1080 cells) was “modest trend toward a reduced number of colonies” and the “Inhibition of CYP2C9” value (CYP2C9) was “No meaningful inhibition”. For the same compound, the “Genotoxic effects, chromosome aberration in CHO cells” value [4] was “no evidence of genotoxic effects”.
